Patent publication US12338261B2 (SUMITOMO PHARMA ONCOLOGY, INC., priority 2015, dated 2025)

Procedure: Repeat dose toxicology studies were performed in female SHO SCID mice using 3 animals per treatment group. […] Body weight measurements of animals treated by oral (see FIGS. 3A-B) and intravenous (see FIG. 3C-D) dosing over the course of the 5-day repeat dosing period and subsequent 5-day observation period, along with mortality and clinical observations, were used to determine the maximum tolerated dosing schedule (MTDrepeat).

In the case of `CN1CC[C@H](c2c(OP(=O)(O)O)cc(O)c3c(=O)cc(-c4ccccc4Cl)oc23)[C@H](O)C1` [Compound IB′, 2-(2-chlorophenyl)-5-hydroxy-8-(3-hydroxy-1-methylpiperidin-4-yl)-4-oxo-4H-chromen-7-yl dihydrogen phosphate], the MTDrepeat (female SHO SCID mice, five daily doses, dosed intravenously) is reported as 15 mg/kg, the overt toxicity (mice, five daily doses, orally 7.5 or 2.5 mg/kg, or any dose level intravenously) is reported as “No overt toxicity was observed” and the mortality (mice, five daily oral doses 15 mg/kg) is reported as “one animal died on day 5, and one animal died on day 7”. For the same compound, the “Body weight loss, peak” value (surviving mice, five daily oral doses 15 mg/kg) was 12%.
